One test concerns the target KAT2B (Homo sapiens, UniProt Q92831). The test can be described thus: KAT2B degradation, Western Blot (Jess), NCI-H1048 cells. The format is cell-based. The conditions noted are these: NCI-H1048 cells, KAT2B, 24 h, Western Blot, vs DMSO; read-out: KAT2B NCI-H1048 DC50. Set-up: degrader, Western blot (Jess). In short, it runs like this:
(§1)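 NCI-H1048 cells grown in HITES medium with 5% FBS were treated with compounds for 24 h at 37° C. Lysates were run by capillary Western (Jess) with KAT2A or KAT2B antibodies and chemiluminescent detection. DC50 derived from percent protein reduction versus DMSO control.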

A further test has as its target KAT2A (Homo sapiens, UniProt Q92830). The test is described as follows: KAT2A degradation, Western Blot (Jess), NCI-H1048 cells. The format is cell-based. Set-up: degrader, Western blot (Jess). The note with it: NCI-H1048 cells, KAT2A, 24 h, Western Blot, vs DMSO; read-out: KAT2A NCI-H1048 DC50. Summed up:
as §1

The structures appear in SMILES notation. A value given as a limit tells only on which side of the number the result lay.

Chain of KAT2B (Q92831 whole entry): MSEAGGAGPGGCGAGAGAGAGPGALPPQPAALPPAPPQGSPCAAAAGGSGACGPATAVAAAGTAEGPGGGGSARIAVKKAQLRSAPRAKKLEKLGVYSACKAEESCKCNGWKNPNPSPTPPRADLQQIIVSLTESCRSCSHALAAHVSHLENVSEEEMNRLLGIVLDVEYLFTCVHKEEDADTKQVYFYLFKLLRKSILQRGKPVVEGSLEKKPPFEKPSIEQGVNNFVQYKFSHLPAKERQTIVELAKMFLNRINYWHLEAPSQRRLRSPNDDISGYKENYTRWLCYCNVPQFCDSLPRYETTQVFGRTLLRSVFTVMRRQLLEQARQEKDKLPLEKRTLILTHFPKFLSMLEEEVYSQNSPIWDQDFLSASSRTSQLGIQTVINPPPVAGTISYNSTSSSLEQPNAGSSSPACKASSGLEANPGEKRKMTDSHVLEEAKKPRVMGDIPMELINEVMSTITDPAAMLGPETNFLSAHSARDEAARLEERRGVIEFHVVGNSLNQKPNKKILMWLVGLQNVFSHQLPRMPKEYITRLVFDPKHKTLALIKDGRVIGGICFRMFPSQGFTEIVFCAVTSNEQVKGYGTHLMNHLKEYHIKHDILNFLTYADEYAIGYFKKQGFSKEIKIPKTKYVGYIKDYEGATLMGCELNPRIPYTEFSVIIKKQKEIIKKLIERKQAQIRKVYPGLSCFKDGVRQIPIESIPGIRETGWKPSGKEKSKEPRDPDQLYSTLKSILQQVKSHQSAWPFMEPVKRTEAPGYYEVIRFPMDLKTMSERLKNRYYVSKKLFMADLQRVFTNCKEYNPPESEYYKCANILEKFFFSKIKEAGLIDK
Chain of KAT2A (Q92830 whole entry): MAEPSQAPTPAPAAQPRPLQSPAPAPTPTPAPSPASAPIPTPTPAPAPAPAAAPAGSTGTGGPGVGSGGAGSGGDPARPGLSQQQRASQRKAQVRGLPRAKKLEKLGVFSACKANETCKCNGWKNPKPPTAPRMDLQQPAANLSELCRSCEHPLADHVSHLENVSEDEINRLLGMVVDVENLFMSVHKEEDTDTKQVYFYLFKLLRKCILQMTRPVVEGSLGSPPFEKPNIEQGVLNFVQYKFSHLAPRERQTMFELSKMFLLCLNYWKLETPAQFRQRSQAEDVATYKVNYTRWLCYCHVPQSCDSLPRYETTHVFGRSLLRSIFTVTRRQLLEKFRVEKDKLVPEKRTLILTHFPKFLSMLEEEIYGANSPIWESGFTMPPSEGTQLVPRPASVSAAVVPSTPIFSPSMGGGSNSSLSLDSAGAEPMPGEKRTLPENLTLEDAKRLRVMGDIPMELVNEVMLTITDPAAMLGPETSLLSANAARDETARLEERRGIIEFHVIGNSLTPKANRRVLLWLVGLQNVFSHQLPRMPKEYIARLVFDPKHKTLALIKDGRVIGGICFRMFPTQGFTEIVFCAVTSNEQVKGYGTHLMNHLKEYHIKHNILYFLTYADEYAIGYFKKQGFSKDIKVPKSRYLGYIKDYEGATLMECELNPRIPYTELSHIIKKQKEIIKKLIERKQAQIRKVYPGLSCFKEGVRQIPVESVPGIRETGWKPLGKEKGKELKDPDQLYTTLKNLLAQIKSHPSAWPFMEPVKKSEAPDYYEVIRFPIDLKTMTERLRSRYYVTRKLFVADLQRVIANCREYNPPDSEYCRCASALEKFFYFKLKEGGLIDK

In the case of `COc1cc(N2CCC3(CCN(C(=O)c4ccc([C@H]5C[C@@H](Nc6cnn(C)c(=O)c6Cl)CN(C)C5)cc4)CC3)CC2)c(C)cc1C1CCC(=O)NC1=O` (stereo partly drawn) [Compound 285], the DC50 is over 30 nM on KAT2B and under 1 nM at KAT2A.
For `COc1cc(N2CCC3(CCN(C(=O)c4ccc([C@H]5C[C@@H](Nc6cnn(C)c(=O)c6Cl)CN(C)C5)cc4)CC3)CC2)cc(C)c1C1CCC(=O)NC1=O` (stereo partly drawn) [Compound 286], in that order: 1 to 30 nM and under 1 nM.
For `COc1cc(N2CCC3(CCN(C(=O)c4ccc([C@H]5C[C@@H](Nc6cnn(C)c(=O)c6Br)CN(C)C5)cc4)CC3)CC2)cc(C)c1C1CCC(=O)NC1=O` (stereo partly drawn) [Compound 287], the DC50 at KAT2B was 1 to 30 nM; at KAT2A it was under 1 nM.
As to `Cc1cc(N2CCC3(CCN(C(=O)c4ccc([C@H]5C[C@@H](Nc6cnn(C)c(=O)c6Cl)CN(C)C5)cc4)CC3)CC2)cc(F)c1C1CCC(=O)NC1=O` (stereo partly drawn) [Compound 288], the DC50 at KAT2B and at KAT2A was under 1 nM each time.
Turning to `CN1C[C@H](Nc2cnn(C)c(=O)c2Cl)C[C@H](c2ccc(C(=O)N3CCC4(CC3)CN(c3ccc(C5CCC(=O)NC5=O)c(F)c3)C4)cc2)C1` (stereo partly drawn) [Compound 289], the DC50 at KAT2B was over 30 nM; on KAT2A, under 1 nM.
With `Cc1cc(N2CC3(CCN(C(=O)c4ccc([C@H]5C[C@@H](Nc6cnn(C)c(=O)c6Cl)CN(C)C5)cc4)CC3)C2)ccc1C1CCC(=O)NC1=O` (stereo partly drawn) [Compound 290], the DC50 was over 30 nM on KAT2B and 1 to 30 nM at KAT2A.
Turning to `Cc1cc(N2CC3(CCN(C(=O)c4ccc([C@H]5C[C@@H](Nc6cnn(C)c(=O)c6Br)CN(C)C5)cc4)CC3)C2)ccc1C1CCC(=O)NC1=O` (stereo partly drawn) [Compound 291], the figures for the half-maximal degradation concentration (DC50) on KAT2B and on KAT2A were 1 to 30 nM and under 1 nM, respectively.
As for `Cc1cc(N2CCC3(CC2)CN(C(=O)c2ccc([C@H]4C[C@@H](Nc5cnn(C)c(=O)c5Br)CN(C)C4)cc2)C3)ccc1C1CCC(=O)NC1=O` (stereo partly drawn) [Compound 292], the DC50 at KAT2B is 1 to 30 nM; at KAT2A it was under 1 nM.
Regarding `CN1C[C@H](Nc2cnn(C)c(=O)c2Cl)C[C@H](c2ccc(C(=O)N3CCC4(CC3)CCN(c3ccc5c(C6CCC(=O)NC6=O)nccc5c3)CC4)cc2)C1` (stereo partly drawn) [Compound 293], the DC50 at KAT2B was 1 to 30 nM; at KAT2A it was under 1 nM.
Consider `CN1C[C@H](Nc2cnn(C)c(=O)c2Br)C[C@H](c2ccc(C(=O)N3CCC4(CC3)CCN(c3ccc5c(C6CCC(=O)NC6=O)nccc5c3)CC4)cc2)C1` (stereo partly drawn) [Compound 294], for which the DC50 at KAT2B and at KAT2A was under 1 nM each time.
With `Cc1c(N[C@@H]2C[C@H](c3ccc(C(=O)N4CCC5(CC4)CCN(c4ccc6c(C7CCC(=O)NC7=O)nccc6c4)CC5)cc3)CN(C)C2)cnn(C)c1=O` (stereo partly drawn) [Compound 295], the results for the DC50 on KAT2B and on KAT2A were 1 to 30 nM and under 1 nM, respectively.
`CN1C[C@H](Nc2cnn(C)c(=O)c2Cl)C[C@H](c2ccc(C(=O)N3CCC4(CC3)CCN(c3ccc5c(C6CCC(=O)NC6=O)cncc5c3)CC4)cc2)C1` (stereo partly drawn) [Compound 296]: the DC50 on KAT2B and at KAT2A was under 1 nM each time.
Turning to `CN1C[C@H](Nc2cnn(C)c(=O)c2Br)C[C@H](c2ccc(C(=O)N3CCC4(CC3)CCN(c3ccc5c(C6CCC(=O)NC6=O)cncc5c3)CC4)cc2)C1` (stereo partly drawn) [Compound 297], the DC50 on KAT2B and on KAT2A was under 1 nM throughout.
In the case of `CN1C[C@H](Nc2cnn(C)c(=O)c2Cl)C[C@H](c2ccc(CN3CCN(c4ccc5cc(C6CCC(=O)NC6=O)cnc5c4)CC3)cc2)C1` (stereo partly drawn) [Compound 298], the values for the DC50 on KAT2B and at KAT2A were over 30 nM and under 1 nM, respectively.
In the same order, the values of `CN1C[C@H](Nc2cnn(C)c(=O)c2Br)C[C@H](c2ccc(CN3CCN(c4ccc5cc(C6CCC(=O)NC6=O)cnc5c4)CC3)cc2)C1` (stereo partly drawn) [Compound 299] are 1 to 30 nM and under 1 nM.
For `CN1C[C@H](Nc2cnn(C)c(=O)c2Br)C[C@H](c2ccc(C(=O)N3CCC4(CC3)CCN(c3ccc5c(c3)C(=O)N(C3CCC(=O)NC3=O)C5=O)CC4)cc2)C1` (stereo partly drawn) [Compound 300], the 50% degradation concentration (DC50) on KAT2B and at KAT2A was under 1 nM each time.
In the case of `CN1C[C@H](Nc2cnn(C)c(=O)c2Cl)C[C@H](c2ccc(C(=O)N3CCC4(CC3)CCN(c3ccc5c(c3)C(=O)N(C3CCC(=O)NC3=O)C5=O)CC4)cc2)C1` (stereo partly drawn) [Compound 301], the DC50 at KAT2B and at KAT2A was under 1 nM throughout.
`CN1C[C@H](Nc2cnn(C)c(=O)c2Cl)C[C@H](c2ccc(C(=O)N3CCC4(CC3)CCN(c3cccc5c3C(=O)N(C3CCC(=O)NC3=O)C5=O)CC4)cc2)C1` (stereo partly drawn) [Compound 302]: the half-maximal degradation concentration (DC50) on KAT2B and at KAT2A was 1 to 30 nM in each case.
As for `Cc1c(N[C@@H]2C[C@H](c3ccc(CN4CCN(c5ccc6c(c5)C(=O)N(C5CCC(=O)NC5=O)C6=O)CC4)cc3)CN(C)C2)cnn(C)c1=O` (stereo partly drawn) [Compound 303], the figures for the DC50 on KAT2B and at KAT2A were 1 to 30 nM and under 1 nM, respectively.
In the same order, the values of `CN1C[C@H](Nc2cnn(C)c(=O)c2Br)C[C@H](c2ccc(CN3CCN(c4cc5c(cc4F)C(=O)N(C4CCC(=O)NC4=O)C5=O)CC3)cc2)C1` (stereo partly drawn) [Compound 304] are 1 to 30 nM and under 1 nM.
In the case of `CN1C[C@H](Nc2cnn(C)c(=O)c2Cl)C[C@H](c2ccc(CN3CCN(c4cc5c(cc4F)C(=O)N(C4CCC(=O)NC4=O)C5=O)CC3)cc2)C1` (stereo partly drawn) [Compound 305], the DC50 on KAT2B was over 30 nM; at KAT2A it was 1 to 30 nM.
For `Cc1c(N[C@@H]2C[C@H](c3ccc(CN4CCN(c5cc6c(cc5F)C(=O)N(C5CCC(=O)NC5=O)C6=O)CC4)cc3)CN(C)C2)cnn(C)c1=O` (stereo partly drawn) [Compound 306], the DC50 was over 30 nM at KAT2B and 1 to 30 nM at KAT2A.
In the same order, the values of `Cc1cc(N2CC(N3CCN(C(=O)c4ccc([C@H]5C[C@@H](Nc6cnn(C)c(=O)c6Br)CN(C)C5)cc4)CC3)C2)ccc1C1CCC(=O)NC1=O` (stereo partly drawn) [Compound 307] are 1 to 30 nM and under 1 nM.
Turning to `Cc1cc(N2CC(N3CCN(C(=O)c4ccc([C@H]5C[C@@H](Nc6cnn(C)c(=O)c6Cl)CN(C)C5)cc4)CC3)C2)ccc1C1CCC(=O)NC1=O` (stereo partly drawn) [Compound 308], the DC50 at KAT2B is 1 to 30 nM; at KAT2A, under 1 nM.
As to `Cc1cc(N2CCC(N3CCN(C(=O)c4ccc([C@H]5C[C@@H](Nc6cnn(C)c(=O)c6Br)CN(C)C5)cc4)CC3)CC2)ccc1C1CCC(=O)NC1=O` (stereo partly drawn) [Compound 309], the DC50 is over 30 nM at KAT2B and under 1 nM on KAT2A.
As for `Cc1cc(N2CCC(N3CCN(C(=O)c4ccc([C@H]5C[C@@H](Nc6cnn(C)c(=O)c6Cl)CN(C)C5)cc4)CC3)CC2)ccc1C1CCC(=O)NC1=O` (stereo partly drawn) [Compound 310], the results for the DC50 on KAT2B and at KAT2A were over 30 nM and under 1 nM, respectively.
In the same order, the values of `Cc1cc(N2CCN(C3CN(C(=O)c4ccc([C@H]5C[C@@H](Nc6cnn(C)c(=O)c6Br)CN(C)C5)cc4)C3)CC2)ccc1C1CCC(=O)NC1=O` (stereo partly drawn) [Compound 311] are over 30 nM and 1 to 30 nM.
In the same order, the values of `Cc1cc(N2CCN(C3CCN(C(=O)c4ccc([C@H]5C[C@@H](Nc6cnn(C)c(=O)c6Br)CN(C)C5)cc4)CC3)CC2)ccc1C1CCC(=O)NC1=O` (stereo partly drawn) [Compound 312] are over 30 nM and under 1 nM.
In the same order, the values of `CN1C[C@H](Nc2ccn(C)c(=O)c2Br)C[C@H](c2ccc(C(=O)N3CCC4(CCC(c5ccc(C6CCC(=O)NC6=O)cc5)CC4)CC3)cc2)C1` (stereo partly drawn) [Compound 313] are under 1 nM and under 1 nM.
Take `CN1C[C@H](Nc2ccn(C)c(=O)c2Cl)C[C@H](c2ccc(C(=O)N3CCC4(CCC(c5ccc(C6CCC(=O)NC6=O)cc5)CC4)CC3)cc2)C1` (stereo partly drawn) [Compound 314]: the DC50 is 1 to 30 nM at KAT2B and under 1 nM at KAT2A.
Turning to `Cc1c(N[C@@H]2C[C@H](c3ccc(C(=O)N4CCC5(CCC(c6ccc(C7CCC(=O)NC7=O)cc6)CC5)CC4)cc3)CN(C)C2)ccn(C)c1=O` (stereo partly drawn) [Compound 315], the figures for the 50% degradation concentration (DC50) on KAT2B and on KAT2A were 1 to 30 nM and under 1 nM, respectively.
In the case of `Cc1c(N[C@@H]2C[C@H](c3ccc(C(=O)N4CCC5(CC4)CCN(c4ccc(C6CCC(=O)NC6=O)c(F)c4)CC5)cc3)CN(C)C2)cnn(C)c1=O` (stereo partly drawn) [Compound 316], the DC50 at KAT2B and on KAT2A was under 1 nM throughout.
As for `CN1C[C@H](Nc2cnn(C)c(=O)c2Cl)C[C@H](c2ccc(C(=O)N3CCC4(CC3)CCN(c3ccc(C5CCC(=O)NC5=O)c(F)c3)CC4)cc2)C1` (stereo partly drawn) [Compound 317], the DC50 at KAT2B and at KAT2A was under 1 nM in each case.
For the compound `COc1cc(N2CCC3(CCN(C(=O)c4ccc([C@H]5C[C@@H](Nc6cnn(C)c(=O)c6Br)CN(C)C5)cc4)CC3)CC2)ccc1C1CCC(=O)NC1=O` (stereo partly drawn) [Compound 318], the 50% degradation concentration (DC50) was 1 to 30 nM on KAT2B and under 1 nM on KAT2A.
For `COc1cc(C2CCC3(CC2)CCN(C(=O)c2ccc([C@H]4C[C@@H](Nc5cnn(C)c(=O)c5Cl)CN(C)C4)cc2)CC3)ccc1C1CCC(=O)NC1=O` (stereo partly drawn) [Compound 319], in that order: 1 to 30 nM and under 1 nM.
As to `COc1cc(C2CCC3(CC2)CCN(C(=O)c2ccc([C@H]4C[C@@H](Nc5cnn(C)c(=O)c5C)CN(C)C4)cc2)CC3)ccc1C1CCC(=O)NC1=O` (stereo partly drawn) [Compound 320], the half-maximal degradation concentration (DC50) was 1 to 30 nM at KAT2B and under 1 nM on KAT2A.
As for `CN1C[C@H](Nc2cnn(C)c(=O)c2Br)C[C@H](c2ccc(C(=O)N3CCC4(CCC(c5ccc(C6CCC(=O)NC6=O)cn5)CC4)CC3)cc2)C1` (stereo partly drawn) [Compound 321], the 50% degradation concentration (DC50) on KAT2B and at KAT2A was under 1 nM each time.
As for `CN1C[C@H](Nc2cnn(C)c(=O)c2Cl)C[C@H](c2ccc(C(=O)N3CCC4(CCC(c5ccc(C6CCC(=O)NC6=O)cn5)CC4)CC3)cc2)C1` (stereo partly drawn) [Compound 322], the DC50 at KAT2B and on KAT2A was under 1 nM each time.
Consider `CN1C[C@H](Nc2cnn(C)c(=O)c2Br)C[C@H](c2ccc(C(=O)N3CCC4(CCC(c5ccc(C6CCC(=O)NC6=O)cc5)CC4)CC3)cc2)C1` (stereo partly drawn) [Compound 323], for which the half-maximal degradation concentration (DC50) at KAT2B and on KAT2A was under 1 nM each time.

For the origin of these results see patent publication US20260306640A1, “TECHNOLOGIES TARGETING CELL STATES” (Auron Therapeutics, Inc., priority 2023, published 2026).
